{"source": "patent US7678363B2", "about": "“Methods of treating psychiatric conditions comprising administration of muscarinic agents in combination with SSRIs” (priority 2005, dated 2010)", "key": {"mGluR3": {"biological_target": "mGluR3 (Homo sapiens, UniProt Q14832)", "sequence (Q14832 23-879)": "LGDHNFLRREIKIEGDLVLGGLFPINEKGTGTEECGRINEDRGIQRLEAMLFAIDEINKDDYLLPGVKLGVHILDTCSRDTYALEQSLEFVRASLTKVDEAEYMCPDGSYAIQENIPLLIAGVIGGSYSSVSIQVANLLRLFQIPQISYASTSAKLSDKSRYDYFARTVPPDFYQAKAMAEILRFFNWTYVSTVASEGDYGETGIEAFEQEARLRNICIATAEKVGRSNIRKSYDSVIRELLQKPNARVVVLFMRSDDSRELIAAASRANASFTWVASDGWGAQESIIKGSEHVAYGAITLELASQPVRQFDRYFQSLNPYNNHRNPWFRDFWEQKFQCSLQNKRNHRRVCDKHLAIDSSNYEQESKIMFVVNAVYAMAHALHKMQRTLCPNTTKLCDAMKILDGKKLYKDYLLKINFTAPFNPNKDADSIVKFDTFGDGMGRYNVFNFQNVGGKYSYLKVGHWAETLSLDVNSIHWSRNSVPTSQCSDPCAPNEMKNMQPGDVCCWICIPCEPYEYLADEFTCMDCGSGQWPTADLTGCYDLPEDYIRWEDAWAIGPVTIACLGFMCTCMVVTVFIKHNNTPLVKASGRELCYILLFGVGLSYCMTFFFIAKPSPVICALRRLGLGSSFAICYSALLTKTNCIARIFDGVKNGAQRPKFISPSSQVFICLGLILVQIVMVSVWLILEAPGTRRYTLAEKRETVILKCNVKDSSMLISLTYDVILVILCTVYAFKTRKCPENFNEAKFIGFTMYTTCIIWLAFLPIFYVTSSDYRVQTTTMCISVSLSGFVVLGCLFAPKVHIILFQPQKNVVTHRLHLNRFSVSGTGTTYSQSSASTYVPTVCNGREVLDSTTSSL", "details": "antagonist; read-out: IC50 against mGluR3; cited from earlier work"}, "mGluR2": {"biological_target": "mGluR2 (Homo sapiens, UniProt Q14416)", "sequence (Q14416 19-872)": "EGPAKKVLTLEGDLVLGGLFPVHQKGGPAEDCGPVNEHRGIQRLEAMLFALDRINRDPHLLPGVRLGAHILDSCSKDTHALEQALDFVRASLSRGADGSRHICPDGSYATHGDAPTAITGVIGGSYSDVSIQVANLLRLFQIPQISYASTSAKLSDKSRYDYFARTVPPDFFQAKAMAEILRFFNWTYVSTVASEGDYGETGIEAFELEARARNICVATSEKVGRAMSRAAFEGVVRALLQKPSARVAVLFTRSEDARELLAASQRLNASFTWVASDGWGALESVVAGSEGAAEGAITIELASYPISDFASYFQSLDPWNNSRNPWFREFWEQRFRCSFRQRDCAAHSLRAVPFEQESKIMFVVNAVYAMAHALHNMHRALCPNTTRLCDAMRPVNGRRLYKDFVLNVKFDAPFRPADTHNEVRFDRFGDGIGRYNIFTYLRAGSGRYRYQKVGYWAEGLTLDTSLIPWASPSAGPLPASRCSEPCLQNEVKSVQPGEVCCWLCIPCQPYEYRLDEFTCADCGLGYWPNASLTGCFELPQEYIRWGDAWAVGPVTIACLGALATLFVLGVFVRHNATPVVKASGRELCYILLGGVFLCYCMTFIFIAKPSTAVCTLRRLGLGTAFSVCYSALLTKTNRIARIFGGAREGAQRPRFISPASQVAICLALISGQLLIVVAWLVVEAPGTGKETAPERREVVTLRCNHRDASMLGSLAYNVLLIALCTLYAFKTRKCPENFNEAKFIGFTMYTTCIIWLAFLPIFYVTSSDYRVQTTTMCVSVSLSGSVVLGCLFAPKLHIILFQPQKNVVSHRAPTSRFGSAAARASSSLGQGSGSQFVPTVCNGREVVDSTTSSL", "details": "antagonist; read-out: IC50 against mGluR2; cited from earlier work"}, "[1]": {"test_system": "Group I and Group III receptors", "details": "at sub-mM concentrations; cited from earlier work"}, "[2]": {"details": "not told; cited from earlier work"}, "[3]": {"test_system": "Human neural stem cells (hNSCs)", "experiment": "Neuronal differentiation of human neural stem cells (TUJ-1 staining)", "type": "cell-based", "details": "for EC50: read-out: EC50 for neuronal differentiation, agent alone", "procedure": "Mitogen-free test media with 5 μM DHEA served as a positive control for neuronal differentiation, and basal media without growth factors served as a negative control.\nThe presence of synergy was determined by use of a combination index (CI). […] The CI is a quantitative measure of the nature of drug interactions, comparing the EC50's of two compounds, when each is assayed alone, to the EC50 of each compound when assayed in combination. The combination index (CI) is equal to the following formula: […]\nwhere C1 and C2 are the concentrations of a first and a second compound, respectively, resulting in 50% activity in neuronal differentiation when assayed in combination; and IC1 and IC2 are the concentrations of each compound resulting in 50% activity when assayed independently."}, "mGlu7 and mGlu8": {"test_system": "mGlu7 and mGlu8", "details": "at higher concentrations (e.g., above 1 μM); cited from earlier work"}, "[4]": {"test_system": "KA, AMPA, and NMDA iGlu receptors", "details": "cited from earlier work"}, "human mGlu3": {"biological_target": "human mGlu3 (Homo sapiens, UniProt Q14832)", "sequence (Q14832 23-879)": "as the sequence (Q14832 23-879) above", "details": "read-out: EC50 against human mGlu3 receptors; agonist, in vitro; cited from earlier work"}, "human mGlu2": {"biological_target": "human mGlu2 (Homo sapiens, UniProt Q14416)", "sequence (Q14416 19-872)": "as the sequence (Q14416 19-872) above", "details": "read-out: EC50 against human mGlu2 receptors; agonist, in vitro; cited from earlier work"}, "[5]": {"test_system": "Human neural stem cells (hNSCs)", "details": "maximum of curve"}, "[6]": {"test_system": "Human neural stem cells (hNSCs)", "experiment": "cells", "details": "Neural stem cell, read-out: EC50 for astrocyte differentiation"}, "[7]": {"details": "clinical reports; cited from earlier work"}, "[8]": {"details": "Homo sapiens, Neural stem cell, agent run independently, percentage of neuronal positive control, basal media values subtracted"}, "[9]": {"details": "agent run independently, percentage of neuronal positive control, basal media values subtracted"}}, "note": "Structures can show the parent of a compound that is named as a salt."}
{"compound": "NC1(C(=O)O)CCc2cc(P(=O)(O)O)ccc21", "note": "(racemic) [APICA, (RS)-1-amino-5-phosphonoindan-1-carboxylic acid]", "values": [{"measurement": "IC50", "setting": "mGluR3", "value": "~30", "unit": "µM"}, {"measurement": "IC50", "setting": "mGluR2", "value": "~30", "unit": "µM"}, {"measurement": "activity against Group I or Group III receptors", "setting": "[1]", "value": "no appreciable activity"}]}
{"compound": "CNC(=O)Oc1ccc2c(c1)[C@]1(C)CCN(C)[C@@H]1N2C", "note": "(single isomer, unassigned) [Physostigmine, 1,2,3,3a,8,8a-hexahydro-1,3a,8-trimethyl-, methylcarbamate (ester) or (3aS,8aR)-pyrrolo(2,3-b)indol-5-ol]", "values": [{"measurement": "blood-brain barrier permeability", "setting": "[2]", "value": "capable of crossing the blood-brain barrier"}]}
{"compound": "NCC(CC(=O)O)c1ccc(Cl)cc1", "note": "(stereo not shown) [Baclofen]", "values": [{"measurement": "EC50", "setting": "[3]; Homo sapiens, Neural stem cell", "value": 3.6, "unit": "µM"}]}
{"compound": "CSc1ccc(C(=O)c2[nH]c(=O)[nH]c2C)cc1", "note": "[Enozimone, enoximone]", "values": [{"measurement": "EC50", "setting": "[3]; [8]", "value": 6.76, "unit": "µM"}]}
{"compound": "N[C@](CC1c2ccccc2Oc2ccccc21)(C(=O)O)[C@H]1C[C@@H]1C(=O)O", "note": "[LY341495, (2S)-2-amino-2-(1S,2S-2-carboxycycloprop-1-yl)-3-(xanth-9-yl)propanoic acid]", "values": [{"measurement": "activity against mGlu7 and mGlu8", "setting": "mGlu7 and mGlu8", "value": "antagonist activity"}, {"measurement": "activity against KA, AMPA, and NMDA iGlu receptors", "setting": "[4]", "value": "substantially inactive"}]}
{"compound": "N[C@@]1(C(=O)O)CO[C@H]2[C@H](C(=O)O)[C@H]21", "note": "[LY379268, (−)-2-Oxa-4-aminobicyclohexane-4,6-dicarboxylic acid]", "values": [{"measurement": "EC50", "setting": "human mGlu3", "value": "< 0.01", "unit": "µM"}, {"measurement": "EC50", "setting": "human mGlu2", "value": "< 0.01", "unit": "µM"}]}
{"compound": "Clc1ccc2c(c1)N=C(N1CCNCC1)c1ccccc1N2", "note": "[N-desmethylclozapine]", "values": [{"measurement": "neurogenic activity", "setting": "[3]; in assays as disclosed herein (not specified)", "value": "highly neurogenic"}]}
{"compound": "COC(=O)C(c1ccccc1)C1CCCCN1", "note": "(stereo not shown) [Ritalin, Methylphenidate hydrochloride]", "values": [{"measurement": "EC50", "setting": "[3]; Homo sapiens, Neural stem cell", "value": 3.5, "unit": "µM"}]}
{"compound": "CN(CCOc1ccc(CC2SC(=O)NC2=O)cc1)c1ccccn1", "note": "(stereo not shown) [Rosiglitazone, rosiglitazone]", "values": [{"measurement": "EC50", "setting": "[3]; [8]", "value": 0.94, "unit": "µM"}]}
{"compound": "Nc1c2c(nc3ccccc13)CCCC2", "note": "[Tacrine, tetrahydroaminoacridine]", "values": [{"measurement": "EC50", "setting": "[3]; [8]", "value": 8, "unit": "µM"}]}
{"compound": "O=C1CC2(CCCC2)CC(=O)N1CCCCN1CCN(c2ncccn2)CC1", "note": "[buspirone]", "values": [{"measurement": "maximum astrocyte differentiation, % of the positive control", "setting": "[5]", "value": 60, "unit": "%"}, {"measurement": "EC50", "setting": "[3]; Homo sapiens, Neural stem cell", "value": 8.4, "unit": "µM"}, {"measurement": "EC50", "setting": "[6]", "value": 5.7, "unit": "µM"}]}
{"compound": "C[C@H](CS)C(=O)N1CCC[C@H]1C(=O)O", "note": "[captopril]", "values": [{"measurement": "EC50", "setting": "[3]; [8]", "value": 3.78, "unit": "µM"}, {"measurement": "EC50", "setting": "[3]; [9]", "value": 2, "unit": "µM"}]}
{"compound": "COc1cc2c(cc1OC)C(=O)C(CC1CCN(Cc3ccccc3)CC1)C2", "note": "(stereo not shown) [donepezil, 2,3-dihydro-5,6-dimethoxy-2-((1-(phenylmethyl)-4-piperidinyl)methyl)-1H-inden-1-one]", "values": [{"measurement": "EC50", "setting": "[3]; agent run independently, percentage of neuronal positive control, basal media values subtracted, listed as Donepezil", "value": 2.02, "unit": "µM"}, {"measurement": "EC50", "setting": "[3]; [9]", "value": 4.7, "unit": "µM"}]}
{"compound": "CNCCC(Oc1ccc(C(F)(F)F)cc1)c1ccccc1", "note": "(stereo not shown) [fluoxetine]", "values": [{"measurement": "reported side effects / dose limiting toxicities", "setting": "[7]", "value": "sexual dysfunction and (rarely) agitation and increased suicidal thoughts"}]}
